Assay in all cases: NCI anticancer screen, dose series, 48 h
The subject of assay [1] is HCT-15 colon.
The subject of assay [2] is IGROV1 ovarian.
Assay [3] deals with DU-145 prostate.
In assay [4] the test system is SK-MEL-2 melanoma.
Assay [5] deals with SNB-19 CNS.
Assay [6] concerns OVCAR-4 ovarian.
Assay [7] relates to NCI-H23 lung.
The test system of assay [8] is K-562 leukemia.
For assay [9], the system named is LOX IMVI melanoma.
For assay [10], the system named is SW-620 colon.

The structures appear in SMILES notation. Where “and” joins values, the source holds several entries; their conditions need not be identical. Equal values may be shown once.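 Step 1: Grow cells in 96-well plates. Step 2: Expose to compound for 48 hours at 5 concentrations. Step 3: Interpolate endpoints linearly; if unreached, use highest concentration. At the GI50, growth is halved. TGI is the concentration that stops growth completely.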

Consider `C[C@H](Nc1ncnc2nc[nH]c12)c1cc2ccc(F)cc2nc1-c1ccccn1`, for which the GI50 in [1] is greater than 100 µM; in [2] it was 20.4 µM; in assay [3], greater than 100 µM; in [4], greater than 100 µM; in assay [5], greater than 100 µM; in assay [6], greater than 100 µM. Moreover, the GI50 in [7] is greater than 100 µM; in assay [8], greater than 100 µM; in assay [9], greater than 86.2 µM; in [10], greater than 100 µM. For the same molecule, the TGI in [1], in assay [2], in assay [3], in assay [4], in assay [5] and in [6] was greater than 100 µM throughout. In addition, the TGI in [7], in assay [8], in assay [9] and in assay [10] was greater than 100 µM in each case.
Take `COc1ccc(C(SCC(N)C(=O)O)(c2ccccc2)c2ccccc2)cc1` (configuration not stated): the GI50 in [1] is 0.451 µM; in assay [2] it was 0.443 µM; in assay [3] it was 0.272 µM; in assay [4], 5.03 µM; in assay [5], 0.0594 µM; in assay [6] it was 29.7 µM. For the same molecule, the GI50 in assay [7] is 0.414 µM; in assay [8] it was 0.0567 µM; in [9], 0.668 µM; in assay [10] it was 0.0745 µM. Further, the TGI in assay [1] was greater than 72.2 µM; in assay [2] it was greater than 82.3 µM; in [3], 0.7 µM; in [4] it was greater than 79.5 µM; in assay [5] it was greater than 100 µM; in assay [6] it was greater than 100 µM. Besides, the TGI is greater than 87.4 µM in assay [7], greater than 45.8 µM in [8], 25.7 µM in [9] and greater than 100 µM in assay [10].
Consider `O=C1c2ccccc2S(=O)(=O)N1CSC(=S)N1CCCCC1`, for which the GI50 in assay [1] is greater than 100 µM; in assay [2], greater than 89 µM; in [3], greater than 100 µM; in assay [4], greater than 100 µM; in [5], greater than 100 µM; in assay [6], greater than 100 µM. The GI50 is greater than 100 µM in assay [7], greater than 94.6 µM in assay [8], greater than 100 µM in assay [9] and greater than 100 µM in assay [10]. Further, the TGI in assay [1], in assay [2], in assay [3], in assay [4], in assay [5] and in assay [6] was greater than 100 µM each time. The TGI in assay [7], in assay [8], in [9] and in [10] was greater than 100 µM throughout.
In the case of `COc1cc(OC)c(/C=C\c2ccnc3ccccc23)c(OC)c1`, the TGI in assay [1] was found to be 18.5 µM; in assay [2] it was 15.5 µM; in [3], 17.2 µM; in assay [4], 19.4 µM; in assay [5], 18.2 µM; in assay [6], 16.5 µM. Also, the TGI turned out to be 22.1 µM in assay [7], 2.24 µM in assay [8], 13.6 µM in [9] and 20.8 µM in assay [10].
Regarding `CC(=O)c1cc(C(=O)c2ccc3c(c2)Sc2ccccc2N3)c2c(C)cc(C)cn12`, the GI50 in assay [1] is 0.344 µM; in assay [2], 0.596 µM; in assay [3], 0.395 µM; in assay [4] it was 0.317 µM; in [5], 0.443 µM; in assay [6], 2.2 µM. Besides, the GI50 was 0.482 µM in assay [7], 0.222 µM in assay [8], 0.73 µM in [9] and 0.372 µM in assay [10]. The TGI was greater than 100 µM in assay [1]; greater than 100 µM in [2]; greater than 47.3 µM in assay [3]; greater than 100 µM in [4]; greater than 100 µM in assay [5]; greater than 100 µM in assay [6]. Besides, the TGI in [7], in assay [8], in [9] and in [10] was greater than 100 µM throughout.
Consider `COc1ccc2cc(-c3cc4c(oc3=O)-c3ccccc3OC4O)c(=O)oc2c1` (configuration not stated), for which the GI50 in assay [1] is 15.8 µM; in assay [2] it was 16.9 µM; in [3], 14.3 µM; in [4] it was 15.6 µM; in [5], 16.2 µM; in assay [6], 12.3 µM. The GI50 was 17.7 µM in assay [7], 92.9 µM in assay [8], 15.9 µM in assay [9] and 15.9 µM in assay [10]. The TGI stood at 32 µM in assay [1]; 34 µM in assay [2]; 27.4 µM in assay [3]; 31.4 µM in [4]; 30.5 µM in assay [5]; 28.9 µM in assay [6]. Further, the TGI in assay [7] is 33.4 µM; in assay [8], greater than 100 µM; in assay [9], 31.2 µM; in assay [10] it was 29.7 µM.
Regarding `Nc1nc(OCc2cc(Br)cs2)c2[nH]cnc2n1`, the GI50 is 18.4 µM in assay [1]; 14.5 µM in [2]; 33 µM in assay [3]; 28.8 µM in assay [4]; 37.6 µM in assay [5]; 24.9 µM in assay [6]. Also, the GI50 in assay [7] is 21.8 µM; in assay [8], 29.7 µM; in assay [9], 25.3 µM; in assay [10] it was 40.2 µM. The TGI in [1] was greater than 100 µM; in [2], 52.1 µM; in [3], greater than 100 µM; in assay [4] it was 81.3 µM; in [5], greater than 100 µM; in assay [6] it was greater than 100 µM. The TGI was greater than 100 µM in assay [7], greater than 100 µM in [8], 98.1 µM in assay [9] and greater than 100 µM in assay [10].
Turning to `NC(=O)c1ccc(NN=O)nc1`, the TGI in assay [1], in [2], in [3], in assay [4], in [5] and in [6] was greater than 100 µM in each case. For the same molecule, the TGI in assay [7], in [8], in [9] and in assay [10] was greater than 100 µM throughout. Moreover, the GI50 in assay [4] and in assay [9] was greater than 100 µM throughout.
For the molecule `C[C@]12CC[C@H](O)C[C@H]1CC[C@@H]1[C@@H]2CC[C@]2(C)[C@@H](C3=CC(=O)OC3)[C@@H](O)C[C@]12O`, the TGI in assay [1] stood at 7.21 µM; in [2] it was 37.3 µM; in assay [3], 2.71 µM; in assay [4], 5.02 µM; in assay [5], 15.5 µM; in assay [6] it was 3.16 µM. Moreover, the TGI in assay [7] was 2.47 µM; in assay [8], greater than 52.2 µM; in [9], 12 µM; in [10] it was 14.6 µM.
`COc1cc2nc(SCC(=O)Nc3cc(OC)c(OC)c(OC)c3)n(Cc3ccccc3)c(=O)c2cc1OC`: the GI50 was greater than 100 µM in assay [1]; 7.34 µM in [2]; 7.44 µM in assay [3]; 3.41 µM in [4]; 2.92 µM in assay [5]; 2.11 µM in assay [6]. For the same molecule, the GI50 in [7] was 4.17 µM; in [8], greater than 100 µM; in [9], 4.71 µM; in assay [10], greater than 100 µM. Further, the TGI is greater than 100 µM in assay [1]; greater than 100 µM in assay [2]; greater than 100 µM in assay [3]; 10.6 µM in [4]; 18.1 µM in [5]; 5.56 µM in assay [6]. For the same molecule, the TGI in [7] is 50.3 µM; in [8], greater than 100 µM; in assay [9] it was greater than 100 µM; in [10], greater than 100 µM.
As for `CCOC(=O)n1cc(C2=C(c3cn(C)c4ccccc34)COC2=O)c2ccccc21`, the GI50 in assay [1] is 0.0382 µM; in [2] it was 0.0564 µM; in assay [3], 0.391 µM; in [4], 0.5 µM; in assay [5], 0.259 µM; in [6], 0.0692 µM. The GI50 is 0.436 µM in assay [7], 0.0365 µM in assay [8], 0.132 µM in assay [9] and 0.0724 µM in assay [10]. Also, the TGI was greater than 63 µM in assay [1]; greater than 45.8 µM in assay [2]; greater than 58 µM in assay [3]; greater than 86.1 µM in assay [4]; greater than 63.2 µM in assay [5]; greater than 100 µM in [6]. Besides, the TGI in assay [7] is 35.5 µM; in assay [8] it was greater than 32.2 µM; in [9], greater than 96.6 µM; in assay [10], greater than 100 µM.
Consider `C=CC(=O)NCc1cccc(Nc2ncc(Br)c(NCCCNC(=O)C3CCC3)n2)c1`, for which the GI50 in [1] is 2.27 µM and 2.65 µM; in assay [2], 1.17 µM and 0.732 µM; in [3] it was 1.25 µM and 1.36 µM; in assay [4] it was 2.17 µM and 2.93 µM; in [5], 1.07 µM and 1.38 µM; in assay [6], 1.67 µM and 1.2 µM. In addition, the GI50 in [7] is 1.5 µM and 1.19 µM; in [8], 2.99 µM and 0.937 µM; in [9], 0.337 µM and 0.246 µM; in assay [10] it was 0.661 µM and 1.15 µM. The TGI in assay [1] is 12.5 µM and 13.2 µM; in assay [2], 12.5 µM and 15.8 µM; in assay [3] it was 12.5 µM and 19.4 µM; in [4], 5.57 µM and 7.08 µM; in [5], 12.5 µM and 18.3 µM; in [6], 6.07 µM and 12.8 µM. The TGI in assay [7] was 8.7 µM and 7.85 µM; in [8] it was 12.5 µM and > 25 µM; in assay [9], 4.21 µM and 4.58 µM; in assay [10], 12.5 µM and 11.7 µM.

Source of the values: PubChem BioAssay (NCI).
